Among the test systems are KM12; HCT-15; HOP-92; MDA-N; NCI-H226; IGROV-1; RPMI-8226; Hs-578T; UO-31; OVCAR-8; SN12C; OVCAR-3; NCI-H23; MCF7; 786-0; SK-MEL-2; NCI-H460; CCRF-CEM.
Common to all, as to experiment: NCI-60 cell line screen, 48 h

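Briefly, cells in 96-well plates were exposed to five compound concentrations for 48 h, and endpoints were estimated by linear interpolation. The concentration for 50% growth inhibition is given as GI50.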 Active and inactive are the calls of the source. Rule as the data show it: active = GI50 up to about 1.1 µM and inactive = higher.

With `COc1ccc(/N=C2\C(=N/c3ccc(OC)cc3)N(S(=O)(=O)c3ccccc3)C(=S)N2c2ccc(OC)cc2)cc1`, the GI50 in the experiment with KM12 is > 100 µM (inactive); in the experiment on HCT-15 it was > 100 µM; with HOP-92, > 100 µM (inactive); with MDA-N, > 100 µM (inactive); in the experiment with NCI-H226 it was > 100 µM (inactive); with IGROV-1 it was > 100 µM (inactive). The GI50 was > 100 µM (inactive) with RPMI-8226; 89.1 µM (inactive) in the experiment on Hs-578T; > 100 µM (inactive) in the experiment with UO-31; > 100 µM (inactive) with OVCAR-8; > 100 µM (inactive) in the experiment with SN12C; > 100 µM (inactive) with OVCAR-3. The GI50 with NCI-H23, in the experiment with MCF7, in the experiment with 786-0 and in the experiment on SK-MEL-2 was > 100 µM (inactive) each time.
Regarding `COc1ccc(/C=C2\CN(C)C/C(=C\c3ccc(OC)c(OC)c3OC)C2=O)c(OC)c1OC`, the GI50 is 0.0859 µM (active) in the experiment with KM12; 0.369 µM in the experiment on HCT-15; 0.617 µM (active) in the experiment on HOP-92; 0.0968 µM (active) in the experiment on MDA-N; 0.394 µM (active) in the experiment on NCI-H226; 0.311 µM (active) in the experiment on IGROV-1. The GI50 with RPMI-8226 is 0.0292 µM (active); in the experiment with Hs-578T it was 0.303 µM (active); in the experiment on OVCAR-8, 0.07 µM (active); in the experiment on SN12C, 0.101 µM (active); in the experiment with NCI-H460, 0.146 µM (active); in the experiment on OVCAR-3, 0.11 µM (active). Besides, the GI50 in the experiment on NCI-H23 is 0.0579 µM (active); with MCF7, 0.0507 µM (active); in the experiment on 786-0, 0.0887 µM (active); in the experiment on SK-MEL-2, 0.363 µM (active); in the experiment with CCRF-CEM, 0.019 µM (active).
With `Cc1nnc(-n2c(O)cc(=O)n(-c3ccccc3)c2=S)nc1/C=C/c1ccc(N(C)C)cc1`, the GI50 was 7.05 µM (inactive) in the experiment on KM12; 4.88 µM in the experiment on HCT-15; 21.5 µM (inactive) in the experiment with HOP-92; 9.25 µM (inactive) with MDA-N; 32.3 µM (inactive) in the experiment on NCI-H226; 5.98 µM (inactive) in the experiment with IGROV-1. For the same molecule, the GI50 is 11.2 µM (inactive) with RPMI-8226; 4.99 µM (inactive) with Hs-578T; 4.11 µM (inactive) in the experiment on UO-31; 9.59 µM (inactive) in the experiment on OVCAR-8; > 43.5 µM (inactive) with SN12C; 8.79 µM (inactive) with NCI-H460. Also, the GI50 in the experiment on NCI-H23 was 8.36 µM (inactive); in the experiment on MCF7, 3.42 µM (inactive); in the experiment with 786-0, 12.3 µM (inactive); in the experiment with SK-MEL-2, 10.9 µM (inactive); with CCRF-CEM it was 8.2 µM (inactive).
Take `CC(C)N1[C@@H]2CCCC[C@H]2N(C(C)C)[PH]1=O`: the GI50 is > 100 µM (inactive) in the experiment with KM12; > 100 µM in the experiment with HCT-15; > 100 µM (inactive) with HOP-92; > 100 µM (inactive) in the experiment on MDA-N; > 100 µM (inactive) in the experiment on NCI-H226; > 100 µM (inactive) with RPMI-8226. Also, the GI50 in the experiment on Hs-578T, in the experiment on UO-31, in the experiment on OVCAR-8, with SN12C, in the experiment on NCI-H460 and with OVCAR-3 was > 100 µM (inactive) throughout. For the same molecule, the GI50 with NCI-H23, with MCF7, in the experiment with 786-0 and with CCRF-CEM was > 100 µM (inactive) in each case.
For `Nc1ccc2nc(-c3ccccn3)c(-c3ccccn3)nc2c1`, the GI50 with KM12 was > 100 µM (inactive); in the experiment on HCT-15, > 100 µM; in the experiment with HOP-92 it was > 100 µM (inactive); in the experiment with MDA-N it was > 100 µM (inactive); in the experiment on NCI-H226, > 100 µM (inactive); with IGROV-1, > 100 µM (inactive). Moreover, the GI50 in the experiment on RPMI-8226, in the experiment on Hs-578T, in the experiment on UO-31, in the experiment on OVCAR-8, in the experiment on SN12C and in the experiment on NCI-H460 was > 100 µM (inactive) each time. Besides, the GI50 in the experiment on OVCAR-3, in the experiment on MCF7, in the experiment with 786-0, in the experiment with SK-MEL-2 and with CCRF-CEM was > 100 µM (inactive) throughout.
Regarding `COc1cc(Nc2ccc3c(c2)CCC3)nc(OC)n1`, the GI50 with KM12 is 27.9 µM (inactive); in the experiment on HCT-15, 27.8 µM; in the experiment with HOP-92, 32.4 µM (inactive); in the experiment with MDA-N, 26.1 µM (inactive); in the experiment on NCI-H226, 32.5 µM (inactive); in the experiment on IGROV-1 it was 31.4 µM (inactive). The GI50 was 14.7 µM (inactive) in the experiment with RPMI-8226; 6.58 µM (inactive) in the experiment with Hs-578T; 34.8 µM (inactive) in the experiment on OVCAR-8; 30.2 µM (inactive) in the experiment on SN12C; 30.8 µM (inactive) in the experiment with NCI-H460; 46.1 µM (inactive) in the experiment on OVCAR-3. The GI50 with NCI-H23 is 36 µM (inactive); in the experiment on MCF7, 29.6 µM (inactive); with 786-0, 37.2 µM (inactive); in the experiment with SK-MEL-2, 33 µM (inactive); in the experiment on CCRF-CEM it was 49.7 µM (inactive).
As to `CN(C)CCn1nc(N)c2nc3cc(C(F)(F)F)ccc3nc21`, the GI50 in the experiment with KM12 was > 100 µM (inactive); in the experiment with HCT-15 it was 67.3 µM; in the experiment with HOP-92, 79.4 µM (inactive); in the experiment on MDA-N it was > 100 µM (inactive); with NCI-H226 it was 2.49 µM (inactive); with IGROV-1, 41.5 µM (inactive). Besides, the GI50 with RPMI-8226 was > 100 µM (inactive); in the experiment with Hs-578T it was 88.7 µM (inactive); with UO-31 it was 31.3 µM (inactive); with OVCAR-8, 88.3 µM (inactive); with SN12C, > 100 µM (inactive); in the experiment on NCI-H460, 51.4 µM (inactive). For the same molecule, the GI50 in the experiment with NCI-H23 was > 100 µM (inactive); in the experiment with MCF7, > 100 µM (inactive); in the experiment with 786-0, > 100 µM (inactive); in the experiment with SK-MEL-2, > 100 µM (inactive); in the experiment on CCRF-CEM, 79.3 µM (inactive).
In the case of `NNC(=O)CS(=O)(=O)Nc1ncccn1`, the GI50 with KM12 was > 100 µM (inactive); with HCT-15, > 100 µM; in the experiment with HOP-92 it was > 100 µM (inactive); with MDA-N, > 100 µM (inactive); in the experiment with NCI-H226, > 100 µM (inactive); with IGROV-1, > 100 µM (inactive). For the same molecule, the GI50 in the experiment with RPMI-8226, with Hs-578T, in the experiment on UO-31, with OVCAR-8, in the experiment on SN12C and with NCI-H460 was > 100 µM (inactive) in each case. Moreover, the GI50 with OVCAR-3, with NCI-H23, in the experiment on MCF7, in the experiment with 786-0 and with SK-MEL-2 was > 100 µM (inactive) each time.
On to `O=C1NC(=O)C(c2c[nH]c3cc(Br)ccc23)=C1c1cnc[nH]1`, for which the GI50 with KM12 is 21.1 µM (inactive); with HCT-15, 54.5 µM; in the experiment on HOP-92, > 100 µM (inactive); in the experiment on MDA-N, 35.5 µM (inactive); in the experiment on NCI-H226, 1.47 µM (inactive); with IGROV-1, 28.4 µM (inactive). For the same molecule, the GI50 in the experiment with RPMI-8226 is 30.8 µM (inactive); with Hs-578T it was 52.7 µM (inactive); in the experiment on UO-31 it was 17.7 µM (inactive); in the experiment on OVCAR-8, 65.2 µM (inactive); with SN12C it was 53.3 µM (inactive); in the experiment on NCI-H460, 24 µM (inactive). Moreover, the GI50 is 12.3 µM (inactive) in the experiment on OVCAR-3; 21.7 µM (inactive) in the experiment on MCF7; 50 µM (inactive) with 786-0; 22.9 µM (inactive) in the experiment on SK-MEL-2; 34.8 µM (inactive) in the experiment on CCRF-CEM.
Turning to `Cc1oc2nc1C(=O)NCc1nc(cs1)C(=O)N[C@H](C(C)C)c1nc(cs1)C(=O)N[C@H]2C`, the GI50 with KM12 was 61.4 µM (inactive); in the experiment with HCT-15, 52.8 µM; in the experiment on HOP-92, 61.1 µM (inactive); in the experiment with MDA-N it was > 100 µM (inactive); with NCI-H226, 42.9 µM (inactive); in the experiment on IGROV-1, 29.9 µM (inactive). The GI50 in the experiment on RPMI-8226 was 14.3 µM (inactive); with Hs-578T it was 75.3 µM (inactive); with UO-31 it was 37.2 µM (inactive); in the experiment on OVCAR-8, 35.2 µM (inactive); with SN12C it was 58.5 µM (inactive); in the experiment with NCI-H460 it was 66.7 µM (inactive). In addition, the GI50 was > 100 µM (inactive) in the experiment on OVCAR-3; > 100 µM (inactive) in the experiment with NCI-H23; 82.2 µM (inactive) in the experiment on MCF7; 57.4 µM (inactive) in the experiment on 786-0; > 100 µM (inactive) in the experiment on CCRF-CEM.
`CC(C)[C@@H]1CC[C@@H](C)C[C@H]1OC(=O)/C=C1\C(C(=O)O[C@@H]2C[C@H](C)CC[C@H]2C(C)C)[C@H]2C=C[C@@H]1O2` (some centres not stated): the GI50 is 87.7 µM (inactive) in the experiment with KM12; 92.3 µM with HCT-15; 63 µM (inactive) in the experiment on HOP-92; 83.6 µM (inactive) in the experiment with MDA-N; 38.3 µM (inactive) in the experiment on NCI-H226; > 100 µM (inactive) in the experiment on IGROV-1. For the same molecule, the GI50 is 56.1 µM (inactive) with RPMI-8226; 72.3 µM (inactive) in the experiment on Hs-578T; > 100 µM (inactive) in the experiment with UO-31; 57.7 µM (inactive) in the experiment with OVCAR-8; 57.8 µM (inactive) in the experiment with SN12C; 37.9 µM (inactive) in the experiment on NCI-H460. In addition, the GI50 with OVCAR-3 is 38.3 µM (inactive); in the experiment with NCI-H23, 36.7 µM (inactive); in the experiment on MCF7, 25.1 µM (inactive); with 786-0 it was 66.5 µM (inactive); in the experiment with CCRF-CEM, 23.4 µM (inactive).
Consider `Cc1sc2nc(-c3ccc(Cl)c([N+](=O)[O-])c3)c(/C=N/NC(=N)N)n2c1C`, for which the GI50 in the experiment with KM12 is 0.45 µM (active); in the experiment on HCT-15, 1.37 µM; in the experiment with HOP-92, 1.4 µM (inactive); in the experiment with MDA-N, 0.893 µM (active); in the experiment on NCI-H226, 1.61 µM (inactive); with IGROV-1 it was 1.09 µM (active). Moreover, the GI50 in the experiment with RPMI-8226 was 1.35 µM (inactive); with Hs-578T it was 1.79 µM (inactive); in the experiment on UO-31 it was 1.65 µM (inactive); in the experiment with OVCAR-8 it was 0.824 µM (active); with SN12C, 1.31 µM (inactive); in the experiment with NCI-H460, 1.63 µM (inactive). The GI50 in the experiment with OVCAR-3 was 1.69 µM (inactive); in the experiment on NCI-H23 it was 1.73 µM (inactive); with MCF7, 0.685 µM (active); in the experiment with 786-0 it was 0.684 µM (active); in the experiment with SK-MEL-2, 1.32 µM (inactive).

For the origin of these results see ChEMBL document CHEMBL1201862, “PubChem BioAssay data set” (2004).
